# According to US8389557B2, “Triazole derivatives useful as Axl inhibitors” (Rigel Pharmaceuticals, Inc., priority 2005, dated 2013):
# Molecular target: T1, Axl (Homo sapiens, UniProt P30530)
# T1 construct: endogenous in cells; host or cells: HeLa cells
# T1 sequence (P30530 26-894): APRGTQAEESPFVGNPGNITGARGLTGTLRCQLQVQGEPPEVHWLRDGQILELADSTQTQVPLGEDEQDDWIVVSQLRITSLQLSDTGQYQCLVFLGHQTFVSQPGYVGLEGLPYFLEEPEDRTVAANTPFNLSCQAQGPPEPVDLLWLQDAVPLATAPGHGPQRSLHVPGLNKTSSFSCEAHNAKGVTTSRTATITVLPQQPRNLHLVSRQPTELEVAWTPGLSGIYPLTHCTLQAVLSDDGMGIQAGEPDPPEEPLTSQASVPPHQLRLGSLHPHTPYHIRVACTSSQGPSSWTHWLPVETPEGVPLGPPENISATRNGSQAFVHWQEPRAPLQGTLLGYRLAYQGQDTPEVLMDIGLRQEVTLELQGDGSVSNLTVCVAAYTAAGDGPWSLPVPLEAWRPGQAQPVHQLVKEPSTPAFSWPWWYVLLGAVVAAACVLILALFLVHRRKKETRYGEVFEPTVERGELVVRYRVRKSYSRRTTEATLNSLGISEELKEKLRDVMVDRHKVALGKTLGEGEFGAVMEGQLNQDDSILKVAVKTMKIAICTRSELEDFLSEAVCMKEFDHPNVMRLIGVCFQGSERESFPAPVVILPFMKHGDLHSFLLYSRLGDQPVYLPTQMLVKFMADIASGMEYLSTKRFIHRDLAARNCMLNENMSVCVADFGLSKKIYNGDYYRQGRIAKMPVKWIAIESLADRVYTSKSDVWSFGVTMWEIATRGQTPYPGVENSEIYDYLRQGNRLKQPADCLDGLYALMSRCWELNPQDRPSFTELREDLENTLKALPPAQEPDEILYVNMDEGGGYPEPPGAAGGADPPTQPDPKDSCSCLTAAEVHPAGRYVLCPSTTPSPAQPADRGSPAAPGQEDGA
# Assay: Phospho-Akt in-cell Western assay (inhibition of Axl activity)
# Type: cell-based
# Conditions: Table 2; Hela cells, Axl antibody cross-linking stimulation, phospho-Akt chemiluminescence
# Method in brief: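 HeLa cells on poly-L-lysine, starved 24 h in 0.5% FCS DMEM with Axl/Fc 500 ng/mL, pre-treated with compound 1 h at 37° C. Axl stimulated 5 min by anti-Axl/anti-mouse antibody cross-linking. Fixed cells probed with anti-phospho-Akt and HRP secondary, chemiluminescence read.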
row,IC50 [µM],SMILES
1,1 to 10,"CC(C)Oc1ccc(C(=O)n2nc(N)nc2Nc2ccc(OCCN3CCCC3)cc2)cc1 [compound 191, 3-amino-1-(4-iso-propoxyphenyl)carbonyl-5-[4-[2-(pyrrolidin-1-yl)ethoxy]phenylamino]-1H-1,2,4-triazole]"
2,10 to 20,"CC(C)Oc1ccc(C(=O)n2nc(N)nc2Nc2ccc(N3CCCCC3)cc2)cc1 [compound 192, 3-amino-1-(4-(iso-propoxy)phenyl)carbonyl-5-[4-(piperidin-1-yl)phenylamino]-1H-1,2,4-triazole]"

# Same assay, conditions: Table 3; Hela cells, Axl antibody cross-linking stimulation, phospho-Akt chemiluminescence
row,IC50 [µM],SMILES
1,1 to 10,"CC(C)Oc1cncc(C(=O)n2nc(Nc3ccc(OCCN4CCOCC4)cc3)nc2N)c1 [compound 171, 5-amino-1-(3-(iso-propoxy)pyridin-5-yl)carbonyl-3-[4-[2-(morpholin-4-yl)ethoxy]phenylamino]-1H-1,2,4-triazole]"
2,> 20,"Nc1nc(Nc2ccc(OCCN3CCCC3)cc2)nn1C(=O)C1CC2C=CC1C2 (stereo not shown) [compound 196, 5-amino-1-[2-(bicyclo[2.2.1]hept-5-ene)carbonyl]-3-[4-[2-(pyrrolidin-1-yl)ethoxy]phenylamino]-1H-1,2,4-triazole]"
3,> 20,"Nc1nc(Nc2ccc(OCCN3CCCC3)cc2)nn1C(=O)C1CC2CCC1C2 (stereo not shown) [compound 200, 5-amino-1-[2-(bicyclo[2.2.1]heptane)carbonyl]-3-[4-[2-(pyrrolidin-1-yl)ethoxy]phenylamino]-1H-1,2,4-triazole]"

# Same assay, conditions: Table 6; Hela cells, Axl antibody cross-linking stimulation, phospho-Akt chemiluminescence
row,IC50 [µM],SMILES
1,> 20,Cc1cccc(C(=O)n2nc(N)nc2Nc2ccc3c(c2)N(C(=O)OC(C)(C)C)CCO3)c1 [compound 167]

# Same assay, conditions: Table 7; Hela cells, Axl antibody cross-linking stimulation, phospho-Akt chemiluminescence
row,SMILES,IC50 [µM]
1,"COc1ccc(Nc2nc(N)n(C(=O)Nc3ccc(Cl)cc3)n2)cc1 [compound 172, 5-amino-N-(4-chlorophenyl)-3-[4-(methoxy)phenylamino]-1H-1,2,4-triazole-1-carboxamide]",> 20
2,"CC(=O)N(C)c1ccc(Nc2nc(N)n(C(=O)Nc3ccc(Cl)cc3)n2)cc1 [compound 174, 3-[4-(acetyl(methyl)amino)phenyl]amino-5-amino-N-(4-chlorophenyl)-1H-1,2,4-triazole-1-carboxamide]",> 20
3,"CC(=O)N(C)c1ccc(Nc2nc(N)n(C(=O)Nc3ccc4c(c3)OCO4)n2)cc1 [compound 175, 3-[4-(acetyl(methyl)amino)phenyl]amino-5-amino-N-(1,3-benzodioxol-5-yl)-1H-1,2,4-triazole-1-carboxamide]",1 to 10
4,"CC(=O)N(C)c1ccc(Nc2nc(N)n(C(=O)NC3CCCC3)n2)cc1 [compound 177, 3-[4-(acetyl(methyl)amino)phenyl]amino-5-amino-N-cyclopentyl-1H-1,2,4-triazole-1-carboxamide]",> 20
5,"CC(=O)N(C)c1ccc(Nc2nc(N)n(C(=O)Nc3ccc(C(C)C)cc3)n2)cc1 [compound 179, 3-[4-(acetyl(methyl)amino)phenyl]amino-5-amino-N-(4-(iso-propyl)phenyl)-1H-1,2,4-triazole-1-carboxamide]",1 to 10
6,"CCCCOc1ccc(NC(=O)n2nc(Nc3ccc(N(C)C(C)=O)cc3)nc2N)cc1 [compound 180, 3-[4-(acetyl(methyl)amino)phenyl]amino-5-amino-N-(4-(butoxy)phenyl)-1H-1,2,4-triazole-1-carboxamide]",1 to 10
7,"CC(=O)N(C)c1ccc(Nc2nc(N)n(C(=O)NC3CCCCC3)n2)cc1 [compound 185, 3-[4-(acetyl(methyl)amino)phenyl]amino-5-amino-N-cyclohexyl-1H-1,2,4-triazole-1-carboxamide]",> 20
8,"CC(C)(C)OC(=O)n1nc(Nc2ccc(N3CCCCC3)cc2)nc1N [compound 201, 5-amino-3-[4-(piperidin-1-yl)phenylamino]-1-(tert-butoxycarbonyl)-1H-1,2,4-triazole]",> 20

# Second part, the compound after the results:
row,IC50 [µM],SMILES
1,> 20,"N#Cc1ccc(NC(=O)n2nc(Nc3ccc(OCCN4CCCCC4)cc3)nc2N)cc1 [compound 194, 5-amino-N-(4-cyanophenyl)-3-[4-[2-(piperidin-1-yl)ethoxy]phenylamino]-1H-1,2,4-triazole-1-carboxamide]"
2,> 20,"Cc1cc(C)cc(NC(=O)n2nc(Nc3ccc(OCCN4CCCCC4)cc3)nc2N)c1 [compound 199, 5-amino-N-(3,5-(dimethyl)phenyl)-3-[4-[2-(piperidin-1-yl)ethoxy]phenylamino]-1H-1,2,4-triazole-1-carboxamide]"

# Same assay, conditions: Table 8; Hela cells, Axl antibody cross-linking stimulation, phospho-Akt chemiluminescence
row,SMILES,IC50 [µM]
1,"CC(=O)N(C)c1ccc(Nc2nc(N)nn2C(=O)Nc2ccc3c(c2)OCO3)cc1 [compound 176, 5-[4-(acetyl(methyl)amino)phenyl]amino-3-amino-N-(1,3-benzodioxol-5-yl)-1H-1,2,4-triazole-1-carboxamide]",> 20
2,"CC(=O)N(C)c1ccc(Nc2nc(N)nn2C(=O)NC2CCCC2)cc1 [compound 178, 5-[4-(acetyl(methyl)amino)phenyl]amino-3-amino-N-cyclopentyl-1H-1,2,4-triazole-1-carboxamide]",> 20
3,"CCCCOc1ccc(NC(=O)n2nc(N)nc2Nc2ccc(OCCN3CCCCC3)cc2)cc1 [compound 182, 3-amino-N-(4-(butoxy)phenyl)-5-[4-[2-(piperidin-1-yl)ethoxy]phenylamino]-1H-1,2,4-triazole-1-carboxamide]",> 20
4,"Cc1ccc(NC(=O)n2nc(N)nc2Nc2ccc(OCCN3CCCCC3)cc2)cc1 [compound 183, 3-amino-N-(4-(methyl)phenyl)-5-[4-[2-(piperidin-1-yl)ethoxy]phenylamino]-1H-1,2,4-triazole-1-carboxamide]",1 to 10
5,"COc1ccc(NC(=O)n2nc(N)nc2Nc2ccc(OCCN3CCCCC3)cc2)cc1 [compound 184, 3-amino-N-(4-(methoxy)phenyl)-5-[4-[2-(piperidin-1-yl)ethoxy]phenylamino]-1H-1,2,4-triazole-1-carboxamide]",1 to 10
6,"Cc1cccc(NC(=O)n2nc(N)nc2Nc2ccc(OCCN3CCCCC3)cc2)c1 [compound 187, 3-amino-N-(3-(methyl)phenyl)-5-[4-[2-(piperidin-1-yl)ethoxy]phenylamino]-1H-1,2,4-triazole-1-carboxamide]",1 to 10

# More lines, now with the values ahead:
row,IC50 [µM],SMILES
1,1 to 10,"COc1cc(NC(=O)n2nc(N)nc2Nc2ccc(OCCN3CCCCC3)cc2)cc(OC)c1 [compound 188, 3-amino-N-(3,5-dimethoxyphenyl)-5-[4-[2-(piperidin-1-yl)ethoxy]phenylamino]-1H-1,2,4-triazole-1-carboxamide]"
2,1 to 10,"Nc1nc(Nc2ccc(OCCN3CCCCC3)cc2)n(C(=O)NC2CCCCC2)n1 [compound 189, 3-amino-N-cyclohexyl-5-[4-[2-(piperidin-1-yl)ethoxy]phenylamino]-1H-1,2,4-triazole-1-carboxamide]"
3,> 20,"Nc1nc(Nc2ccc(OCCN3CCCCC3)cc2)n(C(=O)NC2CCCC2)n1 [compound 190, 3-amino-N-cyclopentyl-5-[4-[2-(piperidin-1-yl)ethoxy]phenylamino]-1H-1,2,4-triazole-1-carboxamide]"
4,1 to 10,"Nc1nc(Nc2ccc(OCCN3CCCCC3)cc2)n(C(=O)Nc2ccc3c(c2)OCO3)n1 [compound 193, 3-amino-N-(1,3-benzodioxol-5-yl)-5-[4-[2-(piperidin-1-yl)ethoxy]phenylamino]-1H-1,2,4-triazole-1-carboxamide]"

# Same assay, conditions: inhibition of Axl activity, Table 1
row,IC50 [µM],SMILES
1,< 1,"CC(C)Oc1cccc(C(=O)n2nc(Nc3ccc(OCCN4CCCCC4)cc3)nc2N)c1 [compound 168, 5-amino-1-(3-(iso-propoxy)phenyl)carbonyl-3-[4-[2-(piperidin-1-yl)ethoxy]phenylamino]-1H-1,2,4-triazole]"
2,< 1,"CC(C)Oc1cccc(C(=O)n2nc(Nc3ccc(OCCN4CCOCC4)cc3)nc2N)c1 [compound 169, 5-amino-1-(3-(iso-propoxy)phenyl)carbonyl-3-[4-[2-(morpholin-4-yl)ethoxy]phenylamino]-1H-1,2,4-triazole]"
3,1 to 10,"CC(C)Oc1cccc(C(=O)n2nc(Nc3cccc(-c4cnco4)c3)nc2N)c1 [compound 170, 5-amino-1-(3-(iso-propoxy)phenyl)carbonyl-3-[3-(1,3-oxazol-5-yl)phenylamino]-1H-1,2,4-triazole]"

# Same assay, conditions: inhibition of Axl activity, phospho-Akt in-cell Western assay; Table 1
row,IC50 [µM],SMILES
1,> 20,"CN(C)c1cccc(C(=O)n2nc(Nc3ccc(OCCN4CCCC4)cc3)nc2N)c1 [compound 197, 5-amino-1-(3-(dimethylamino)phenyl)carbonyl-3-[4-[2-(pyrrolidin-1-yl)ethoxy]phenylamino]-1H-1,2,4-triazole]"
2,> 20,"COc1ccc(C(=O)n2nc(Nc3ccc(OCCN4CCCC4)cc3)nc2N)cc1OC [compound 198, 5-amino-1-(3,4-(dimethoxy)phenyl)carbonyl-3-[4-[2-(pyrrolidin-1-yl)ethoxy]phenylamino]-1H-1,2,4-triazole]"
